PMC7285913, “In vitro hepatic biotransformation of the algal toxin pectenotoxin-2” (Toxicon: X, 2020)

Assays:
[1] = system: primary rat hepatocytes; assay: Calculation of the hepatic clearance and maximum bioavailability of PTX-2 in rats from hepatocyte half-life; type: in vitro ADME; conditions: for CLb: predicted in vivo hepatic blood clearance in rat, well-stirred model, fub = 1; for CLint: scaled from rat hepatocyte assay
Protocol: The in vitro assay clearance (CLassay) of PTX-2 was calculated from the hepatocyte incubations run with first order kinetics (CLassay = Vassay × ln2/t1/2 [Lh^−1]) using the assay volume (Vassay) and the disappearance half-life (t1/2) of the parent compound as determined from the slope of the linear regression from a semi-logarithmic concentration vs. time plot ([Obach, 1999]). […] The in vivo hepatic blood clearance (CLb) was calculated from CLint by applying the non-restricted well-stirred model (CLb = CLint x Q/(CLint + Q) [L (h x kg)^−1]) ([Houston, 1994]), considering the hepatic blood flow in rat (Q ~ 4.2 L (h x kg)^−1) ([Lin and Lu, 1998]). Potential binding to blood components in vivo was not considered in this study and thus the fraction unbound in blood (fub) set to 1. The maximum bioavailability (Fmax) of PTX-2 in rats was estimated (Fmax = Fa x (1 – (CLb/Q) under the assumption of complete absorption from the gastrointestinal tract (Fa = 1) ([De Buck et al., 2007]) and negligible non-hepatic elimination. Fmax was ranked according to the criteria for low (0–10%), moderate (10–30%) and high bioavailability (up to 100%) ([Obach, 1996]).

[2] = system: mice; conditions: intestinal toxicity in mice; ref Alexander et al., 2009; cited from earlier work
[3] = system: mice; conditions: single oral doses of 0.3, 1 and 5 mg/kg bw, preliminary data, ref Burgess and Shaw, 2001, Alexander et al., 2009; cited from earlier work
[4] = ref Alexander et al., 2009, cited from earlier work; for provisional toxicity equivalent factor (TEF): EFSA
[5] = system: primary rat hepatocytes; assay: In vitro hepatocyte assay under kinetic conditions (PTX-2 disappearance); type: in vitro ADME, Wistar rats
Protocol: (§1) Isolated rat liver cells were prepared by a two-step collagenase ex vivo perfusion from male Wistar rats, weighing 250–300 g and kept under routine laboratory conditions with free access to standard laboratory pelleted feed and water ([Seglen, 1976]). The hepatocytes were separated by gradient centrifugation ([Fæste and Moldes-Anaya, 2016]), suspended in PBS, and stored for up to 1 h on ice before use ([Sidelmann et al., 1996], [Gebhardt et al., 2003]). Cell viability was determined microscopically (Leica DMIL microscope; Leica Microsystems GmBH, Wetzlar, Germany), using Trypan blue staining and a Neubauer-counting chamber. About 2.5 × 10^8 living cells per liver were obtained on average, and only preparations with viabilities >92% were used in the metabolism experiments.
(§2) The hepatocyte suspension was diluted with KRB–HEPES buffer pH 7.4 (Krebs-Ringer buffer containing 145 mM NaCl, 5.4 mM KCl, 0.8 mM MgSO4, 0.33 mM Na2HPO4, 0.34 mM KH2PO4, 2 mM CaCl2, and 20 mM HEPES) to a final assay concentration of 2.5 × 10^6 cells/mL. The incubations were performed in capped round-bottom glass tubes in a total assay volume of 5 mL. After pre-incubation for 5 min at 37 °C in a shaking water bath, 5–25 μL of a PTX-2 stock solution containing 1 mg/mL PTX-2 in MeOH were added, resulting in initial concentrations of 1–5 μg/mL PTX-2 in the assay. Aliquots (300 μL) were taken after 0, 2.5, 5, 7.5, 10, 15, 30, and 60 min of incubation and directly transferred into 300 μL ice-cold acetonitrile (ACN) in Eppendorf tubes. Two control samples were included in the experiments, a blank matrix control and a PTX-2 stability control. After centrifuging all samples at 16,000 g for 1 min (5415D centrifuge; Eppendorf AG, Hamburg, Germany), the supernatants were transferred to HPLC vials for analysis by liquid chromatography mass spectrometry (LC-MS) to determine the half-life of PTX-2 in rat hepatocytes.
(§3) LC-MS analyses of centrifuged aliquots from the kinetic assays were performed under reversed phase conditions using a Symmetry C18 column (5 μm, 3.9 × 150 mm) (Waters, Milford, MA, USA) and a binary LC pump (Finnigan Mod. 250) coupled to an Autosampler Plus (Thermo Electron Corporation, San Jose, CA, USA). 5–20 μL samples were injected and eluted using a linear gradient starting with ACN/water (40:60, v/v, both containing 0.1% formic acid and 2 mM ammonium formate) and rising to 100% ACN in 20 min. Isocratic elution with 100% ACN was maintained for 5 min before the eluent was returned to the starting conditions. The flow rate was set to 1 mL/min.

[6] = as above; type: in vitro ADME, Wistar rats; conditions: male, Wistar, primary rat hepatocytes in suspension, pH 7.4, primary rat hepatocytes, read-out: t½,assay (converted)
Protocol: as §1, §2, §3

[7] = system: mussels; conditions: in mussels, in contrast to PTX-2; ref MacKenzie et al., 2005; cited from earlier work
[8] = system: mice; conditions: mouse, ref Suzuki et al., 2006, cited from earlier work

CC1=CC(C)CC2(C)CCC(O2)C23CCC(C)(CC(O2)C2OC(C)(CC2=O)C(O)C2CCC4(CCCC(O4)C(C)C(=O)OC4CC(C5(O)OCCC(C)C5O)OC4C=C1)O2)O3 (stereo not drawn) [PTX-2, pectenotoxin-2]
CLb ([1]; PTX-2 1.4 μg/mL): 47.3 mL/min/kg | CLint ([1]; PTX-2 1.4 μg/mL): 146 mL/min/kg | CLb ([1]; PTX-2 2.6 μg/mL): 50 mL/min/kg | CLint ([1]; PTX-2 2.6 μg/mL): 174 mL/min/kg | CLb ([1]; PTX-2 4.8 μg/mL): 47 mL/min/kg | CLint ([1]; PTX-2 4.8 μg/mL): 143 mL/min/kg | compound predicted to remain unmetabolized after the first pass through the liver ([1]; after oral uptake, rat): up to 32% | predicted hepatic blood clearance (rank) ([1]; rat, negligible protein binding and unrestricted absorption assumed): moderate | lowest-observed-adverse-effect-level (LOAEL) [2]: 250 μg/kg bw | metabolic elimination [3]: considerable metabolic elimination | uptake from the gastrointestinal tract [3]: low uptake from the gastrointestinal tract | provisional toxicity equivalent factor (TEF) [4]: 1 | acute reference dose (ARfD) ([4]; established by EFSA): 0.8 μg PTX-2 equivalents/kg body weight (bw) | PTX-2 remaining unchanged ([5]; after 30 min of incubation, all concentrations, rat hepatocytes): 17–20% | metabolism in freshly isolated rat hepatocytes ([5]; freshly isolated rat hepatocytes): rapidly metabolized | half-life at 1.4 μg/mL ([6]; PTX-2 1.4 μg/mL): 11.4 min | half-life at 2.6 μg/mL ([6]; PTX-2 2.6 μg/mL): 9.6 min | half-life at 4.8 μg/mL ([6]; PTX-2 4.8 μg/mL): 12 min

CC1=C\[C@H](C)C[C@@]2(C)CC[C@@H](O2)[C@@]23CC[C@@](C=O)(C[C@@H](O2)[C@H]2O[C@](C)(CC2=O)[C@@H](O)[C@@H]2CC[C@@]4(CCC[C@H](O4)[C@@H](C)C(=O)O[C@@H]4C[C@@H]([C@@]5(O)OCC[C@@H](C)[C@H]5O)O[C@@H]4\C=C\1)O2)O3 [PTX-3]
provisional toxicity equivalent factor (TEF) [4]: 1

CC1=C\[C@H](C)C[C@@]2(C)CC[C@@H](O2)[C@@]23CC[C@@](C)(C[C@@H](O2)[C@H]2O[C@](C)(CC2=O)[C@@H](O)[C@@H]2CC[C@@]4(CCC[C@H](O4)[C@@H](C)C(=O)O[C@@H]4[C@H](O)[C@@H]([C@@]5(O)OCC[C@@H](C)[C@H]5O)O[C@@H]4\C=C\1)O2)O3 [PTX-11, 34 S-hydroxypectenotoxin-2]
resistance to enzymatic hydrolysis [7]: relatively resistant to enzymatic hydrolysis | effects after oral application ([8]; as much as 5 mg/kg bw p. o.): no effects were detected | LD50 ([8]; i. p.): 0.24 mg/kg bw | provisional toxicity equivalent factor (TEF) [4]: 1

CC1=C\[C@H](C)C[C@@]2(C)CC[C@@H](O2)[C@@]23CC[C@@](CO)(C[C@@H](O2)[C@H]2O[C@](C)(CC2=O)[C@@H](O)[C@@H]2CC[C@]4(CCC[C@H](O4)[C@@H](C)C(=O)O[C@@H]4C[C@@H]([C@@]5(O)OCC[C@@H](C)[C@H]5O)O[C@@H]4\C=C\1)O2)O3 [PTX-4]
provisional toxicity equivalent factor (TEF) [4]: 1

CC(/C=C/[C@H]1O[C@H]([C@@]2(O)OCC[C@@H](C)[C@H]2O)C[C@H]1O)=C\[C@H](C)C[C@@]1(C)CC[C@H]([C@@]23CC[C@@](C)(C[C@H]([C@H]4O[C@@](C)([C@@H](O)[C@@H]5CCC6(CCC[C@@H]([C@@H](C)C(=O)O)O6)O5)CC4=O)O2)O3)O1 (stereo partly drawn) [PTX-2 seco acid (SA), pectenotoxin-2 seco acid]
relative toxicity ([4]; compared with PTXs given TEF of 1): much less toxic

CC1=C\[C@H](C)C[C@@]2(C)CC[C@@H](O2)[C@@]23CC[C@@](CO)(C[C@@H](O2)[C@H]2O[C@](C)(CC2=O)[C@@H](O)[C@@H]2CC[C@@]4(CCC[C@H](O4)[C@@H](C)C(=O)O[C@@H]4C[C@@H]([C@@]5(O)OCC[C@@H](C)[C@H]5O)O[C@@H]4\C=C\1)O2)O3 [PTX-1, reference compound]
provisional toxicity equivalent factor (TEF) [4]: 1

CC1=C\[C@H](C)C[C@@]2(C)CC[C@@H](O2)[C@@]23CC[C@@](C(=O)O)(C[C@@H](O2)[C@H]2O[C@](C)(CC2=O)[C@@H](O)[C@@H]2CC[C@@]4(CCC[C@H](O4)[C@@H](C)C(=O)O[C@@H]4C[C@@H]([C@@]5(O)OCC[C@@H](C)[C@H]5O)O[C@@H]4\C=C\1)O2)O3 [PTX-6]
provisional toxicity equivalent factor (TEF) [4]: 1
